For series [1] the following is noted: Telford et al. 1961; Yeh et al. 1976; cited from earlier work.
Another series concerns writhing. Nature of the series: Acetic acid mouse writhing test (analgesic effects). The class given is in vivo, mice (male CD-1). Conditions: for ED50: Mus musculus, sc, 0.25 h, mice, subcutaneous, acetic acid i.p. 15 minutes post drug, Table I, read-out: ED50. Here is the method:
(A) Analgesic effects upon mice (acetic acid writhing test).
TEST A. ACETIC ACID MOUSE WRITHING TEST
The analgesic effects of test compounds were determined in mice by use of the acetic acid writhing test described by B. J. R. Whittle, Brit. J. Pharmacol., 22:246 (1964). In this test at least three groups of five male CD-1 mice (18-22 g) each were given subcutaneous doses of the test drug dissolved in either distilled water or distilled water acidified with HCl depending on the solubility of the compound. In all cases, 0.4 milliliter of a 0.5% V/V acetic acid in distilled water solution was administered intraperitoneally 15 minutes post drug. The number of writhes in a 20 min. interval beginning 5 minutes after the acetic acid injection were determined and compared with the number of writhes in control groups which had received only acetic acid.
Percent inhibition of writhing was calculated as: [formula]
The ED50 dose, i.e., the dose required to reduce the number of writhes by 50%, was determined graphically from a plot of % inhibition as a probit versus log dose. Confidence limits of 95% were calculated on the basis of those results falling in the range 16-84% inhibition. See Litchfield, J. T. and Wilcoxon, F., J. Pharmacol. Exp. Ther., 96, 99-113, (1949).
Background: In writhing tests, fewer writhes than in controls are read as antinociception.

Series [2] concerns Anti-Peristaltic Effects Of Morphine. Nature of the series: Charcoal meal test, antagonist test (ability to antagonize the anti-peristaltic effects of morphine). The class given is in vivo, mice (albino females, CFW strain). Conditions: for Percent Reversal (S.E.) Of Anti-Peristaltic Effects Of Morphine: morphine 8 mg/kg, naloxone 10 mg/kg = 100%; for antagonist properties: in words, charcoal meal tests. The method, then: (§1) The agonist and antagonist effects of TR-5088, reference compound TR-5128 and prior art compound 17-cyclopropylmethyl-4,5α-epoxy-3-hydroxymorphinan-6-one (TR-5118) were determined in mice by a modified procedure of Rodriguez and Villarreal (report on the 36th Annual Scientific Meeting Committee on the Problems of Drug Dependance, Mar. 10-14, 1974, Mexico City, D.F.).
(§2) Subjects and Procedure for Measuring Gastrointestinal Peristaltic Activity. The mice used were albino females of the CFW strain, weighing between 20 and 25 grams; ten animals per dose were used for each compound tested in each experiment except 20 animals were used in the tests of Compound 5088. Gastrointestinal peristaltic activity was measured using a modification of the charcoal meal method described by Macht and Baba-Gose (1931). Mice were deprived of food 18 hours before the administration of the charcoal meal. […] This meal consisted of an aqueous suspension of 5% powdered tragacanth and 5% animal charcoal and was freshly made for each experiment. The charcoal meal was administered by gastric intubation, 0.25 ml per mouse. The animals were sacrificed by cervical dislocation. After the sacrifice, the whole gastrointestinal tract was rapidly removed and freed of epiploon. Then the entire length of intestine was hung upon a small hook at the level of the pylorus. In order to standardize the tension of the intestine, a 5 g weight was hung at the level of the ileocecal valve. Gastrointestinal peristaltic activity was then determined by measuring the distance the charcoal traveled from the pylorus.
(§3) Drugs. Morphine hydrochloride, naloxone hydrochloride or test compounds were each dissolved in distilled water with their concentrations adjusted so that the volume of injection was 10 ml/kg. Doses are expressed in terms of the salts.
Determination of Ability of Test Compounds to Antagonize the Anti-Peristaltic Effects of Morphine (Antagonist test).
Morphine (8 mg/kg) was given s.c. at time 0, charcoal meal was given p.o. at time 15 min, naloxone or test compound was given s.c. at 30 min, and the animals were sacrificed at time 45 min. Naloxone is the standard of reference and its maximum effect (at 10 mg/kg) to antagonize the antiperistaltic effects of morphine is assigned the value of 100%; test compounds are expressed as % of maximum naloxone antagonism.

In the next series the test system is Peristalsis. Kind of series: Charcoal meal test, agonist test (ability of test compound to directly inhibit peristalsis). The class given is in vivo, mice (albino females, CFW strain). Conditions: for inhibition at 0.01 mg/kg / inhibition at 0.1 mg/kg / inhibition at 1 mg/kg / inhibition at 10 mg/kg / inhibition at 100 mg/kg: Mus musculus, sc, morphine 8 mg/kg = 100%, read-out: Percent Inhibition of Peristalsis; for inhibition at 0.01 mg/kg: 0.01 mg/kg s.c.; for inhibition at 0.1 mg/kg: 0.1 mg/kg s.c.; for inhibition at 1 mg/kg: 1.0 mg/kg s.c.; for inhibition at 10 mg/kg: 10.0 mg/kg s.c.; for inhibition at 100 mg/kg: 100.0 mg/kg s.c.; for inhibition of peristalsis / constipating side effect: in words, analysis of variance, comparison of compounds. Here is the method:
as §1, §2, §3
Morphine (8 mg/kg), test compound, or saline control was administered subcutaneously (s.c.), at time 0, the charcoal meal was administered by mouth (p.o.) at time 15 min, water (10 ml/kg) was administered s.c. at time 30 min, and the animals were sacrificed at time 45 min. The saline control value represents 0% inhibition and the morphine value represents 100% inhibition. All test compounds had values between saline and morphine, and results are expressed as % inhibition compared to morphine.
The data were subjected to analysis of variance. Also the Scheffe test, a statistical test that allows for multiple comparison, was performed.

The next series relates to morphine effect. Kind of series: Narcotic antagonist activity, modified rat tail flick test. The class given is in vivo, rats (male albino Wistar). As to conditions: Rattus norvegicus, ip; rats, test drug i.p. 10 minutes before ED80 dose of morphine s.c.; Table I; read-out: AD50 (the source's name). The method, then:
(B) Narcotic antagonist activity in rats (modified rat tail flick test).
TEST B. EVALUATION OF NARCOTIC ANTAGONIST ACTIVITY
The narcotic antagonist effects of test compounds were determined by a modification of the rat tail flick procedure of Harris and Pierson (J. Pharmacol. Exp. Ther. 143,141 [1964]).
Male albino Wistar rats (100-120 g) were used for this study. A rat's tail is so placed so as to cover a photocell. Heat is applied by a lamp in a reflector with a timer being connected to the lamp and photocell so that the timer goes on when the light is turned on and is turned off when the photocell is uncovered. A rheostat, incorporated into a heating lamp is used to adjust the intensity of the light falling on the tail of the rat such that the rat's control reaction time is from two to four seconds. Animals with a control reaction time outside this range are rejected. The rheostat adjustment is made only if a significant proportion (more than 2 out of every 10 rats) of the reaction times are outside the range of two to four seconds. Groups of five rats were used each time, and two control times were determined at 60 and 30 minutes prior to subcutaneous injection of the drug.
Thirty minutes after the last control run the test drug was given intraperitoneally. This was followed ten minutes later by an ED80 dose of morphine subcutaneously. The animals were retested at 20 minutes after the morphine injection. Control animals were given vehicle and morphine only. The data were calculated as follows: [formula]
The data were plotted on log-probit paper and AD50 values, i.e., the dose required to inhibit the morphine effect by 50% within 95% confidence limits, were determined by the method of Litchfield and Wilcoxon.
(In general: Hot-plate and tail-flick tests time the reaction to a heat stimulus.)

The conditions of series [3]: Gates and Montzka 1964; cited from earlier work.

As a reminder, the inhibition is the percentage by which the read-out fell short of the control.

In the case of `C=CCN1CC[C@]23c4c5ccc(OC)c4O[C@H]2C(=O)CC[C@H]3[C@H]1C5` [7,8-dihydro-N-allylnorcodeinone, 17-allyl-4,5α-epoxy-3-methoxymorphinan-6-one], the analgesic properties entry in series [1] is given as “weak analgesic properties”.
On to `C[C@H]1CC(=O)[C@@H]2Oc3c(O)ccc4c3[C@@]23CCN(CC2CCC2)[C@H](C4)[C@H]13.Cl` [TR-5088, 17-Cyclobutylmethyl-4,5α-epoxy-3-hydroxy-8β-methylmorphinan-6-one Hydrochloride], for which the ED50 with writhing was 0.67 mg/kg; in the series on morphine effect it was 1.9 mg/kg. Moreover, the analgesic activity result in the series on writhing (in words) is “especially effective analgesics”. The “Percent Reversal (S.E.) Of Anti-Peristaltic Effects Of Morphine” value (shortened to “Percent Reversal”) in series [2] (0.031 mg/kg s.c.) is 12.4(±5.8) %; in series [2] (0.31 mg/kg s.c.) it was 27.7(±7.3) %; in series [2] (3.1 mg/kg s.c.) it was 54.6(±6.7) %; in series [2] (31.0 mg/kg s.c.) it was 44.7(±6.2) %. For the same compound, in series [2], the antagonist properties result is “dramatically increased antagonist properties”. Moreover, the inhibition at 0.01 mg/kg in the series with Peristalsis worked out at 13.5%. Further, the inhibition at 0.1 mg/kg with Peristalsis is 39.8%. Also, in the series on Peristalsis, the inhibition at 1 mg/kg was 50.7%. The inhibition at 10 mg/kg in the series on Peristalsis came to 54%. For the same compound, the inhibition at 100 mg/kg in the series with Peristalsis amounted to 63.5%. In addition, the “inhibition of peristalsis / constipating side effect” value in the series on Peristalsis (Hydrochloride) was “inhibit peristalsis to a statistically significantly less degree than TR-5128”; in the series on Peristalsis (listed as 17-cyclobutylmethyl-4,5α-epoxy-3-hydroxy-8β-methylmorphinan-6-one, Hydrochloride), “less side effects”.
As to `O=C1CC[C@H]2[C@H]3Cc4ccc(O)c5c4[C@@]2(CCN3CC2CC2)[C@H]1O5` [TR-5118, 17-cyclopropylmethyl-4,5α-epoxy-3-hydroxymorphinan-6-one], the ED50 in the series on writhing was determined as 1.34 mg/kg. Further, the “Percent Reversal” value in series [2] (3.1 mg/kg s.c.) is 56.6(±8.0) %. Also, in series [2] (31.0 mg/kg s.c.), the “Percent Reversal” value is given as 69.3(±6.4) %. The antagonist properties result in series [2] is “mixed agonist side effects and antagonist properties”. In addition, in the series with Peristalsis, the inhibition at 0.01 mg/kg turned out to be 24.7%, the inhibition at 0.1 mg/kg is 25.4%, the inhibition at 1 mg/kg came to 40.8% and the inhibition at 10 mg/kg stood at 44.8%. In the series on Peristalsis, the inhibition at 100 mg/kg is 47.1% and the “inhibition of peristalsis / constipating side effect” value is recorded as “inhibit peristalsis to a statistically significantly less degree than TR-5128”. Moreover, the narcotic antagonist activity result in series [3] was “had narcotic antagonist activity”. Further, in the series on morphine effect, the ED50 was determined as 0.19 mg/kg.
Take `O=C1CC[C@H]2[C@H]3Cc4ccc(O)c5c4[C@@]2(CCN3CC2CCC2)[C@H]1O5` [TR-5128, 17-Cyclobutylmethyl-4,5α-epoxy-3-hydroxymorphinan-6-one]: the ED50 in the series with writhing worked out at 0.07 mg/kg; in the series on morphine effect, 1.7 mg/kg. The “Percent Reversal” value in series [2] (0.01 mg/kg s.c.) is recorded as 0.0%; in series [2] (0.10 mg/kg s.c.) it was 8.3(±4.6) %; in series [2] (1.0 mg/kg s.c.), 13.5(±7.3) %; in series [2] (10.0 mg/kg s.c.), 19.1(±5.8) %; in series [2] (31.0 mg/kg s.c.), 20.4(±5.3) %. Further, the antagonist properties entry in series [2] is “so low an antagonist ability as to be ineffective in the practical sense”. For the same compound, in the series with Peristalsis, the inhibition at 0.01 mg/kg came out at 17.5%. Moreover, the inhibition at 0.1 mg/kg in the series with Peristalsis came to 35.6%. Moreover, the inhibition at 1 mg/kg in the series on Peristalsis was 50.7%. In addition, in the series with Peristalsis, the inhibition at 10 mg/kg worked out at 76.3%. Further, the inhibition at 100 mg/kg in the series with Peristalsis came to 84.2%.

These data come from patent publication US4272541A, “7,8 and 7-8 Substituted 4,5α-epoxymorphinan-6-one compounds, and methods of treating pain and drug dependence with them” (Miles Laboratories, Inc., priority 1979, dated 1981).
